Results taken from US20040057926A1, “Modulation of the immune response through the manipulation of arginine levels” (LSU Medical Center, priority 2002, published 2004).

How the values were obtained:
Jurkat cells = experiment: Co-culture in transwells of stimulated PM and Jurkat cells, CD3ζ expression; type: cell-based; details: for induction of CD3ζ down-regulation by excess of the substance: data not shown; for CD3ζ in Jurkat cells co-cultured with PM stimulated with IL-4+IL-13: NOHA 100 μM, Nor-NOHA 50 μM, L-Arg 2 mM, L-NIL 5 μg/ml, catalase 200 U/ml, L-NMMA, L-NNA, L-NAME 1 mM
Procedure: PM were cultured in 6 well plates in RPMI containing 150 μM L-Arg and stimulated with murine rIL-4 (50 U/ml) and murine rIL-13 (50 ng/ml), or murine rIFN-γ (100 U/ml) for 24 hours. Then 1×10^6 normal T-cells stimulated with anti-CD3 plus anti-CD28 or 1×10^6 Jurkat cells, were cultured in the top chamber of a transwell system having 0.4 μm pores (Falcon, Franklin lakes, N.J.). CD3ζ expression was measured in Jurkat cells or T lymphocytes at different time points. PM were detached using trypsin/EDTA and the expression of protein and RNA for CAT-2B, ASE I, ASE II and iNOS was tested by western blot and northern blot respectively. Cytoplasmic extracts from PM were used to test ASE activity. Supernatants from stimulated PM were used to measure NO production using the Griess reagent method (Molecular Probes, Eugene, Oreg.). In addition, the extra-cellular concentration of L-Arg was tested in supernatants by HPLC (Dr. Gu Yao Wu laboratory, University of Texas) as described previously. O'Quinn, P. R., D. A. Knabe, and G. Wu. 2002. Arginine catabolism in lactating porcine mammary tissue. J Anim Sci. 80:467-474.
Flow cytometry analysis was performed as previously described. Taheri, F., J. B. Ochoa, Z. Faghiri, K. Culotta, H. J. Park, M. S. Lan, A. H. Zea, and A. C. Ochoa. 2001. L-Arginine regulates the expression of the T-cell receptor zeta chain (CD3zeta) in Jurkat cells. Clin Cancer Res 7:958s-965s. Briefly, 5×10^5 Jurkat cells or T lymphocytes were washed once with Dulbecco phosphate-buffered saline 1× (D-PBS) and resuspended in 200 μL of D-PBS containing 1 μg of anti-CD3ε or isotype control. Cells were incubated for 15 min at 4° C., washed with D-PBS and resuspended in 200 μl D-PBS containing 500 μg/ml of digitonin plus 1 μg of anti-CD3ζ or 1 μg of isotypic control. Cells were incubated for 8 minutes after which they were washed and resuspended in 400 μl of D-PBS. Fluorescence acquisition and analysis were done using a Coulter-EPICS XL flow cytometer (Beckman-Coulter) with a 488 nm argon laser. The data were expressed as mean channel fluorescence intensity (MFI).

T-cells = experiment: Lysosome and proteasome inhibition, CD3ζ expression in T-cells; type: cell-based, human; details: lactacystin 2.5 μM, bafylomycin A1 1 μM
Procedure: To inhibit lysosome function 2×10^6 T-cells cultured in the presence or absence of L-arginine, were treated with 1 μM bafylomycin A1 (Calbiochem, San Diego, Calif.) or 1 μM folimycin (Calbiochem) during the course of the experiments begining at time 0 (start of the cultures), 24, 48 and 72 hours after stimulation. To inhibit proteasome activity 2.5 μM lactacystin (Calbiochem) was added to the cultures at the same time points. DMSO was used as a control vehicle in all the cases. The CD3ζ expression was tested by flow cytometry 24 hours after the addition of the inhibitors.

[1] = type: cell-based; details: within 24 h, trypan blue exclusion
Procedure: To further explore possible mechanisms leading to a decreased T-cell response induced by the H. pylori sonicate, various aspects of T-cell signal transduction were studied. […] The expression of the CD3ζ chain, the main signaling element of the T-cell antigen receptor, were then tested. […] Harris, P. R., et al. J. Infect. Dis. 178, pp. 1516-1520 (1998); Zhang, Q. B., et al. Gut 38, pp. 841-845 (1996). Therefore some of these H. pylori proteins were tested to determine whether they could reduce CD3ζ expression. The recombinant proteins CagA, VacA, urease A (UreA), urease B (UreB) were titrated up to 10 μg/ml, a concentration where they caused cell death within 24 h as determined by trypan blue exclusion. […] Harris, P. R., et al. J. Infect. Dis. 178, pp. 1516-1520 (1998); Pai, R., et al. Biochem. Biophys. Res. Commun. 262, pp. 245-250 (1999); Rudnicka, W., et al. J. Physiol Pharmacol. 49, pp. 111-119 (1998); Tanahashi, T., et al. Infect. Immun. 68, pp. 664-671 (2000).

## NCCC[C@H](N)C(=O)O [L-ornithine]
Jurkat cells
  induction of CD3ζ down-regulation by excess of the substance: did not induce CD3ζ down-regulation

## CC(=O)N[C@@H](CSC(=O)[C@]1([C@@H](O)C(C)C)NC(=O)[C@H](C)[C@@H]1O)C(=O)O [lactacystin]
T-cells
  decrease of CD3ζ upon stimulation with proteosome or lysosome inhibitor: failed to prevent the decrease of CD3ζ upon stimulation

## CC(=N)NCCCC[C@H](N)C(=O)O [L-NIL]
Jurkat cells
  CD3ζ in Jurkat cells co-cultured with PM stimulated with IL-4+IL-13: did not prevent CD3ζ down-regulation

## NC(N)=O [urea]
[1]
  concentration where they caused cell death: 10000 ng/mL
Jurkat cells
  induction of CD3ζ down-regulation by excess of the substance: did not induce CD3ζ down-regulation

## UreB: recombinant H. pylori urease B
[1]
  concentration where they caused cell death: 10000 ng/mL

## Catalase
Jurkat cells
  CD3ζ in Jurkat cells co-cultured with PM stimulated with IL-4+IL-13: did not prevent the decrease of CD3ζ

## CO/C1=C\C(C)=C\[C@@H](C)[C@@H](O)[C@@H](C)C/C(C)=C/C=C/[C@H](OC)[C@@H]([C@@H](C)[C@@H](O)[C@H](C)[C@@]2(O)C[C@@H](O)[C@H](C)[C@@H](C(C)C)O2)OC1=O [bafilomicyn, bafylomycin A1]
T-cells
  decrease of CD3ζ upon stimulation with proteosome or lysosome inhibitor: failed to prevent the decrease of CD3ζ upon stimulation

## N=C(NCCC[C@H](N)C(=O)O)N[N+](=O)[O-] [L-NNA, N-NO2-L-Arg]
Jurkat cells
  CD3ζ in Jurkat cells co-cultured with PM stimulated with IL-4+IL-13: did not prevent CD3ζ decrease

## CNC(=N)NCCC[C@H](N)C(=O)O [NMMA, L-mono-methyl-L-Arg]
Jurkat cells
  CD3ζ in Jurkat cells co-cultured with PM stimulated with IL-4+IL-13: partially prevented the CD3ζ down-regulation

## COC(=O)[C@@H](N)CCCNC(=N)N[N+](=O)[O-] [L-NAME, N-NO2-L-Arg-OMe]
Jurkat cells
  CD3ζ in Jurkat cells co-cultured with PM stimulated with IL-4+IL-13: did not prevent CD3ζ decrease

B1: CagA: recombinant H. pylori protein CagA (protein, UniProt P55980 1-1186, looked up)
Cytotoxicity-associated …: MTNETIDQTRTPDQTQSQTAFDPQQFINNLQVAFIKVDNVVASFDPDQKPIVDKNDRDNRQAFDGISQLREEYSNKAIKNPTKKNQYFSDFIDKSNDLINKDNLIDVESSTKSFQKFGDQRYQIFTSWVSHQKDPSKINTRSIRNFMENIIQPPIPDDKEKAEFLKSAKQSFAGIIIGNQIRTDQKFMGVFDESLKERQEAEKNGGPTGGDWLDIFLSFIFNKKQSSDVKEAINQEPVPHVQPDIATTTTDIQGLPPEARDLLDERGNFSKFTLGDMEMLDVEGVADIDPNYKFNQLLIHNNALSSVLMGSHNGIEPEKVSLLYAGNGGFGDKHDWNATVGYKDQQGNNVATLINVHMKNGSGLVIAGGEKGINNPSFYLYKEDQLTGSQRALSQEEIRNKVDFMEFLAQNNTKLDNLSEKEKEKFQNEIEDFQKDSKAYLDALGNDRIAFVSKKDTKHSALITEFNNGDLSYTLKDYGKKADKALDREKNVTLQGSLKHDGVMFVDYSNFKYTNASKNPNKGVGATNGVSHLEAGFNKVAVFNLPDLNNLAITSFVRRNLENKLTAKGLSLQEANKLIKDFLSSNKELAGKALNFNKAVAEAKSTGNYDEVKKAQKDLEKSLRKREHLEKEVEKKLESKSGNKNKMEAKAQANSQKDEIFALINKEANRDARAIAYTQNLKGIKRELSDKLEKISKDLKDFSKSFDEFKNGKNKDFSKAEETLKALKGSVKDLGINPEWISKVENLNAALNEFKNGKNKDFSKVTQAKSDLENSVKDVIINQKVTDKVDNLNQAVSVAKAMGDFSRVEQVLADLKNFSKEQLAQQAQKNEDFNTGKNSELYQSVKNSVNKTLVGNGLSGIEATALAKNFSDIKKELNEKFKNFNNNNNGLKNSTEPIYAKVNKKKTGQVASPEEPIYTQVAKKVNAKIDRLNQIASGLGGVGQAAGFPLKRHDKVDDLSKVGLSASPEPIYATIDDLGGPFPLKRHDKVDDLSKVGRSRNQELAQKIDNLNQAVSEAKAGFFGNLEQTIDKLKDSTKKNVMNLYVESAKKVPASLSAKLDNYAINSHTRINSNIQNGAINEKATGMLTQKNPEWLKLVNDKIVAHNVGSVSLSEYDKIGFNQKNMKDYSDSFKFSTKLNNAVKDIKSGFTHFLANAFSTGYYCLARENAEHGIKNVNTKGGFQKS
[1]
  concentration where they caused cell death: 10000 ng/mL
